Experimental data reported in PubChem BioAssay (NCI).
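These data come from cells grown in 96-well plates and exposed to compound for 48 hours at five concentrations. TGI: total growth inhibition.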

Experiments:
Assay in all cases: NCI tumour cell line growth inhibition, 48 h
DLD-1 colon = system: DLD-1 colon
DMS 273 small cell lung = system: DMS 273 small cell lung
HOP-18 NSCLC = system: HOP-18 NSCLC
KM20L2 colon = system: KM20L2 colon
LXFL 529 NSCLC = system: LXFL 529 NSCLC
M19-MEL melanoma = system: M19-MEL melanoma
SNB-78 CNS = system: SNB-78 CNS
P388 leukemia = system: P388 leukemia
P388/ADR leukemia = system: P388/ADR leukemia
SN12K1 renal = system: SN12K1 renal
XF 498 CNS = system: XF 498 CNS

SMILES | TGI (DLD-1 colon) | TGI (DMS 273 small cell lung) | TGI (HOP-18 NSCLC) | TGI (KM20L2 colon) | TGI (LXFL 529 NSCLC) | TGI (M19-MEL melanoma) | TGI (SNB-78 CNS) | TGI (P388 leukemia) | TGI (P388/ADR leukemia) | TGI (SN12K1 renal) | TGI (XF 498 CNS)
COc1cc2c(c(OC)c1O)-c1ccc(SC)c(=O)cc1C(NC(C)=O)CC2 (stereo not drawn) | > 100 µM | > 100 µM | > 100 µM | 0.0246 µM | > 100 µM | > 100 µM | > 100 µM |  |  |  | 
Cc1c2n(c(=O)[nH]c1=O)C1OC(CO)C(O2)C1N=[N+]=[N-] (stereo not drawn) | > 100 µM | > 100 µM |  | > 100 µM | > 100 µM | > 100 µM | > 100 µM |  |  |  | 
N/C(=N\N=C/c1ccc(O)c(O)c1O)NO | 51.2 µM | 18.5 µM | > 100 µM | 82.5 µM |  | 48.1 µM | > 79.4 µM | 29.4 µM | 41.6 µM | 34.7 µM | > 100 µM
C[n+]1c2ccccc2c(NCC(=O)O)c2ccccc21 | > 100 µM | > 100 µM | > 100 µM | > 100 µM | > 100 µM | > 100 µM | > 100 µM |  |  |  | 
S=C1NCCN1 | > 100 µM | > 100 µM |  | > 100 µM | > 100 µM | > 100 µM | > 100 µM |  |  |  | > 100 µM
CC1(C)CCc2ccc(OCCC(=O)O)cc2O1 | > 100 µM | > 100 µM |  |  | > 100 µM | > 100 µM | > 100 µM |  |  |  | 
CCCCCCNC(=O)C(C)C1CCC2(C)C=CC(=O)C(C)=C2C1O (stereo not drawn) | > 100 µM | > 100 µM | > 100 µM | > 100 µM |  |  | > 100 µM | > 100 µM | > 100 µM | > 100 µM | > 100 µM
O=C1N(Cl)C(=O)C(c2ccc(Cl)cc2)(c2ccc(Cl)cc2)N1Cl | > 100 µM | > 100 µM | > 100 µM | > 100 µM | > 100 µM | > 100 µM |  |  |  |  | > 100 µM
